Results: EP2767273A1, “Death-associated protein kinases, inhibitors and activators thereof for use in pharmaceutical compositions and in predictive medicine” (UNIVERSITÄTSKLINIKUM ERLANGEN, priority 2013, dated 2014)

Legend:
STAT3 = STAT3 Y705 phosphorylation in HCEC cells (Western blotting); assay type: cell-based, human
Protocol: (§1) HCEC cells were kindly provided by Professor Steinberg Pablo (Institute for Food Toxicology and Analytical Chemistry, University of Veterinary Medicine Hannover, Germany) and maintained as previously described.^31 After 24 hours of seeding, cells were either stimulated with 0.66 ng/ml TNF (ImmunoTools) for various time points. For inhibitor experiments cells were pre-incubated for one to two hours with the corresponding inhibitors.
(§2) Protein concentration was measured in duplicates using Bio-rad Dc Protein Assay (BioRad Laboratories, Hercules, CA). Equal amounts of protein were separated by 10% or 12% SDS-PAGE using Laemmli buffer system. Proteins were transferred electrophoretically to nitrocellulose membrane (Millipore Corporation, Billerica, MA, USA) and detected as recently described^33 using following antibodies, anti-DAPK (BD Transduction Laboratories, Lexington NY), anti-pDAPK^S308 (Sigma), anti-STAT3, anti-pSTAT3^γ705, anti-caspase3 (Cell Signaling Technology Inc.), anti-ß-actin (Sigma), or anti-GAPDH (Abnova GmbH, Germany).

DAPK [1] = assay: DAPK mRNA expression in HCEC cells (real time RT-PCR); assay type: cell-based, human; conditions: for DAPK mRNA enhanced: 7 µM Stattic + TNF, relative to TNF treatment
Protocol: as §1
Expression of IL-6, IL-8, and DAPK mRNA were analyzed by real time RT-PCR. RNA isolation (mRNeasy RNA isolation kit) and cDNA synthesis (Quantitect reverse transcriptase kit) were performed according to the manufacturer's instructions (Qiagen, Hilden, Germany). 1 µl of cDNA was amplified in a thermal cycler (Biorad CFX-96) with corresponding primers in a total volume of 25 µl using Quantifast SYBR green kit (Qiagen) under the following conditions: 95°C for 5 minutes followed by 26-40 cycles of 95°C for 10 s and 60°C for 30 s. The following primers were used, forward and reverse respectively: DAPK, 5'-[…]-3' and 5'-GATCCCGAGTGGCCAAA-3'; IL-6, 5'-[…]-3' and 5'-[…]-3'; IL-8, 5'-[…]-3' and 5'-[…]-3'; ß2microglobulin (house-keeping gene), 5'-[…]-3' and 5'-[…]-3'; murine DAPK, 5'-[…]-3' and 5'-[…]-3'; murine GAPDH (house-keeping gene), 5'-[…] -3' and 5'-[…] -3'. The results were expressed as fold induction compared to unstimulated cells after normalising to house-keeping gene. All primers were purchased from metabion (metabion international AG, Martinsried, Germany).

DAPK [2] = assay: DAPK protein expression/activation in HCEC cells (Western blotting); assay type: cell-based, human
Protocol: as §1, §2
Silencing of DAPK expression in HCEC cells was performed by the siRNA technique according to the manufacturer's instructions (Dharmacon, Chicago, IL, USA). […] At the end of the incubation period supernatants and cells were harvested and stored at -80°C until analyzed further. The knockdown efficiency was determined by Western blotting.

IL-6 [3] = assay: IL-6 secretion in HCEC cell culture supernatants (ELISA); assay type: cell-based, human; conditions: HCEC cells
Protocol: as §1
IL-6 and IL-8 secretion was analyzed by ELISA according to the manufacturer's instructions (BD Biosciences; Heidelberg, Germany). […] After blocking (300 µl 3% BSA in PBS, 2 hours, RT) and washing (0.1% Tween in PBS, (PBS-T), 100 µl of undiluted or diluted supernatant was added and incubated (2 hours, RT or overnight 4°C). Thereafter, wells were washed and incubated (1.5 hours, RT) with detection antibody (1:250 diluted in 1% BSA in PBS-T) + enzyme reagent (Streptavidin-horseradish peroxidase conjugate; 1:250 diluted in detection antibody). After washing, TMB (1:1) substrate was added to each well and incubated in a dark for 20-30 minutes. Reaction was stopped with stop solution (100 µl 1 M H2SO4) and absorption was measured using spectrophotometer (Victor X3, Perkin-elmer) at a wavelength of 450 nm with a wavelength correction at 570 nm.

AOM-DSS tumors = assay: AOM+DSS mouse model of colitis-associated tumors, treatment with DAPK-inhibitor; assay type: in vivo, mice
Protocol: as §2
Experimental colitis-associated tumorigenesis was performed as previously described.^43 In brief, 10mg/kg Azoxymethane (AOM; Sigma) was injected intraperitoneally into 6-8 week old C57BL/6J mice, followed by 3 cycles of DSS in drinking water. Each DSS-cycle was composed of DSS (2.5 % (w/v); MP Biomedicals) in drinking water for 7 days, followed by a recovery phase with regular drinking water for 14 days. All tumors were harvested at day 65-70.

IL-6 [4] = assay: IL-6 mRNA expression in HCEC cells (real time RT-PCR); assay type: cell-based, human; conditions: AG490
Protocol: as §1
Expression of IL-6, IL-8, and DAPK mRNA were analyzed by real time RT-PCR. RNA isolation (mRNeasy RNA isolation kit) and cDNA synthesis (Quantitect reverse transcriptase kit) were performed according to the manufacturer's instructions (Qiagen, Hilden, Germany). 1 µl of cDNA was amplified in a thermal cycler (Biorad CFX-96) with corresponding primers in a total volume of 25 µl using Quantifast SYBR green kit (Qiagen) under the following conditions: 95°C for 5 minutes followed by 26-40 cycles of 95°C for 10 s and 60°C for 30 s. […] The results were expressed as fold induction compared to unstimulated cells after normalising to house-keeping gene. […]

[5] = AOM-DSS tumors, treated mice vs untreated control mice

## O=[N+]([O-])c1ccc2c(c1)S(=O)(=O)C=C2 [Stattic]
STAT3; 7 µM Stattic pre-treatment
  TNF-induced STAT3Y705 phosphorylation down-regulated: up to 45%
DAPK [1]; after 48 hours
  DAPK mRNA enhanced: 1-5 fold
DAPK [1]; after 72 hours
  DAPK mRNA enhanced: 2.8 fold
DAPK [2]; 7 µM Stattic + TNF
  DAPK protein: enhanced

## O=C1OC(c2ccccc2)=N/C1=C\c1cccnc1 [DAPK inhibitor, (4Z)-2-phenyl-4-(pyridine-3-ylmethylidene)-4,5-dihydro-1,3-oxazol-5-one]
STAT3; 0.66 ng/ml TNF, 10 µM DAPK inhibitor, after 24, 48, and 72 hours
  STAT3Y705 phosphorylation: enhanced
IL-6 [3]; 0.66 ng/ml TNF, 10 µM DAPK inhibitor, after 6 and 24 hours
  TNF-induced IL-6 secretion: significantly increased
AOM-DSS tumors; AOM-DSS mice, with vs without DAPK-inhibitor
  tumors in the gut (endoscopy): less and smaller tumors
AOM-DSS tumors; AOM-DSS mice, untreated controls: non-invasive growth, low grade atypia, simple and tubular architecture
  tumor growth, atypia and architecture (immunohistochemical evaluation): invasively growing, showed high grade atypia, and a complex, cribiform architecture
AOM-DSS tumors; [5]
  NFκB inhibitor plκß in tumors (Western Blotting): up-regulated
  tumor suppressor p53 in tumors (Western Blotting): down-regulated

## N#C/C(=C\c1ccc(O)c(O)c1)C(=O)NCc1ccccc1 [AG490, Tyrphostin AG 490]
STAT3; 20 µM AG490 prior to TNF treatment
  pSTAT3Y705 levels decreased: 35%
IL-6 [3]; AG490
  TNF-induced IL-6 secretion down-regulated: 50%
DAPK [1]; 20 µM AG490 pre-treatment + TNF, after 72 hours
  DAPK mRNA expression: 3.3 fold
IL-6 [4]
  TNF-induced IL-6 mRNA expression down-regulated: 50%
DAPK [2]; 20 µM AG490 + TNF
  TNF-induced DAPK protein expression: elevated
